In patent US11827628B2, “Compositions and methods for inhibition of the JAK pathway” (Rigel Pharmaceuticals, Inc., priority 2005, dated 2023):

Tested on: IL-4 stimulated expression of CD23 in human Ramos B cells (JAK-1 and JAK-3)
Experiment: Assay for Ramos B-Cell Line Stimulated with IL-4 (CD23 upregulation, FACS)
Format: cell-based
Details: Ramos B-cell line stimulated with IL-4; CD23 expression by FACS; read-out: IC50, Example 41
Outline: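 Log-phase Ramos cells, 1 h compound pre-incubation at 37 °C; IL-4 50 units/mL final, 20-24 h; CD23-PE stain, FACS; IC50.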

## Cc1cc(Nc2nc(Nc3cccc(S(N)(=O)=O)c3)ncc2F)ccc1OC(C)C#N (racemic) [Compound I-61, Racemic N2-(3-Aminosulfonyl)phenyl-N4-[4-(1-cyano)ethoxy-3-methyl]phenyl-5-fluoro-2,4-pyrimidinediamine]
  IC50: 45.9 nM

## CC(C#N)Oc1ccc(Nc2nc(Nc3cccc(S(N)(=O)=O)c3)ncc2F)cc1 (racemic) [Compound I-65, Racemic N2-(3-Aminosulfonyl)phenyl-N4-[4-(1-cyano)ethoxy]phenyl-5-fluoro-2,4-pyrimidinediamine]
  IC50: 96.5 nM

## CC(C#N)Oc1ccc(Nc2nc(Nc3ccc(S(N)(=O)=O)cc3)ncc2F)cc1 (racemic) [Compound I-66, Racemic N2-(4-Aminosulfonyl)phenyl-N4-[4-(1-cyano)ethoxy]phenyl-5-fluoro-2,4-pyrimidinediamine]
  IC50: 103 nM

## Cc1cc(Nc2nc(Nc3ccc(F)c(S(N)(=O)=O)c3)ncc2F)ccc1OCC#N [Compound I-34, N2-(3-Aminosulfonyl-4-fluoro)phenyl-N4-(4-cyanomethoxy-3-methyl)phenyl-5-fluoro-2,4-pyrimidinediamine]
  IC50: 62.3 nM

## Cc1ccc(Nc2ncc(F)c(Nc3ccc(OCC#N)cc3)n2)cc1S(=O)(=O)NC(=O)C(C)C [Compound I-37, N4-(4-Cyanomethyleneoxy)phenyl-5-fluoro-N2-(3-isobutyrylaminosulfonyl-4-methyl)phenyl-2,4-pyrimidinediamine]
  IC50: 499 nM

## Cc1cnc(Nc2ccc(S(N)(=O)=O)cc2)nc1Nc1ccc(OCC#N)cc1 [Compound I-57, N2-(4-Aminosulfonylphenyl)-N4-(4-cyanomethoxyphenyl-5)-methyl-2,4-pyrimidinediamine]
  IC50: 21.6 nM

## CC(C)(C#N)Oc1ccc(Nc2nc(Nc3ccc(S(N)(=O)=O)cc3)ncc2F)cc1 [Compound I-75, N2-(4-Aminosulfonyl)phenyl-N4-[4-(1-cyano-1-methyl)ethoxy]phenyl-5-fluoro-2,4-pyrimidinediamine]
  IC50: 199 nM

## Cc1ccc(Nc2ncc(F)c(Nc3cccc(OCC(N)=O)c3)n2)cc1S(N)(=O)=O [Compound I-90, N4-(3-Aminocarbonylmethoxy)phenyl-N2-(3-aminosulfonyl-4-methyl)phenyl-5-fluoro-2,4-pyrimidinediamine]
  IC50: 401 nM

## Cc1cc(Nc2nc(Nc3cccc(S(N)(=O)=O)c3)ncc2F)ccc1OCC(N)=O [Compound I-92, N4-(4-Aminocarbonylmethoxy-3-methyl)phenyl-N2-(3-aminosulfonyl)phenyl-5-fluoro-2,4-pyrimidinediamine]
  IC50: 166 nM

## Cc1ccc(Nc2ncc(F)c(Nc3ccc(OCC(N)=O)cc3)n2)cc1S(N)(=O)=O [Compound I-94, N4-(4-Aminocarbonylmethoxy)phenyl-N2-(3-aminosulfonyl-4-methyl)phenyl-5-fluoro-2,4-pyrimidinediamine]
  IC50: 345 nM

## Cc1cc(Nc2nc(Nc3ccc(C)c(S(N)(=O)=O)c3)ncc2F)ccc1OCC(N)=O [Compound I-95, N4-(4-Aminocarbonylmethoxy-3-methyl)phenyl-N2-(3-aminosulfonyl-4-methyl)phenyl-5-fluoro-2,4-pyrimidinediamine]
  IC50: 118 nM

## CNS(=O)(=O)c1cc(Nc2ncc(F)c(NCCc3ccc(-c4ccncc4)cc3)n2)ccc1C [III-78, 5-Fluoro-N2-[3-N-(methyl)aminosulfonyl-4-methylphenyl]-N4-[4-(4-pyridinyl)phenethyl]-2,4-pyrimidinediamine]
  IC50: 275 nM

## CNS(=O)(=O)c1cc(Nc2ncc(F)c(Nc3ccc(Cn4ccnc4)cc3)n2)ccc1C [III-83, 5-Fluoro-N2-[3-(N-methylaminosulfony)-4-methylphenyl]-5-fluoro-N4-[4-(1-imidazolylmethyl)phenyl]-2,4-pyrimidinediamine]
  IC50: 98.7 nM
